{
  "source": "patent US20170105981A1",
  "about": "“METHODS FOR STABILIZING HYPOXIA INDUCIBLE FACTOR-2 ALPHA AS A METHOD FOR TREATING CANCER” (The Ohio State Innovation Foundation, priority 2011, published 2017)",
  "key": {"[1]": {"tested_on": "A375 human melanoma cells", "experiment": "A375 human melanoma tumors in SCID mice", "type": "in vivo", "conditions": "at the time of sacrifice; stabilizer 17 mg/kg, docetaxel 1 mg/kg, IP 3 times per week", "description": "6-8-week-old C57BL/6 mice or SCID mice were injected with 1×10^5 B16F10 murine melanoma cells or 1×10^6 A375 human melanoma cells, respectively, subcutaneously on the left flank. […] Tumor diameters were measured 3 times per week with calipers, and tumor volumes will be calculated as follows: Tumor volume=0.5×[(large diameter)×(small diameter)^2].\nIn the study, immunocompromised SCID mice were inoculated with A375 human melanoma tumors subcutaneously. Starting when the tumors became palpable (7 days after injection), mice were treated with either the cytotoxic chemotherapy docetaxel or with the disclosed HIF-2α stabilizer. The disclosed HIF-2α stabilizer was given at a dose of 17 mg/kg, and the docetaxel was given at 1 mg/kg. Both drugs were given IP 3 times per week. […] At the time of sacrifice, the tumors in the mice that received only the disclosed HIF-2α stabilizer were approximately 78% of the size of the control tumors, the tumors of the mice that received only chemotherapy were approximately 50% of the size of the control tumors, and the tumors of the mice that received both drugs were approximately 16% of the size of the control tumors."}, "VEGF": {"tested_on": "VEGF", "experiment": "VEGF production by human peripheral blood monocytes (ELISA, real-time PCR)", "type": "cell-based", "conditions": "FIG. 11C", "description": "(§1) Human peripheral blood mononuclear cells (PBMCs) were isolated from fresh peripheral blood leukocyte source packs (American Red Cross, Columbus Ohio) by density gradient centrifugation over Lymphocyte Separation Medium (Cellgro). Monocytes were purified from total PBMCs by layering over FBS. Monocytes were cultured in endotoxin-free RPMI-1640 supplemented with 1% fetal bovine serum (FBS), 0.1% human serum albumin (HSA), and 10 μg/mL of the endotoxin inhibitor polymyxin B. In some experiments, freshly isolated monocytes were differentiated into macrophages by three-day culture in media containing 10% FBS, 1% PSA (penicillin G sodium, streptomycin sulfate, and amphotericin B), and 20 ng/mL M-CSF. Macrophages were serum-starved for 2 hours prior to stimulation. Monocytes or monocyte-derived macrophages were treated for 24 hours with 10 ng/mL GM-CSF, 10 μM disclosed HIF-2α stabilizer, or an equivalent volume of the vehicle controls (PBS or DMSO, respectively). Cell-free culture supematants were harvested and analyzed for VEGF or sVEGFR-1 by ELISA (R&D Systems).\nHuman monocytes were left untreated or were stimulated with 100 ng/mL GM-CSF at normoxia or at 0.5% O2. At various time-points, cells were harvested in Trizol reagent (Invitrogen) and RNA was extracted in chloroform and then purified using the RNeasy Minikit (Qiagen). In murine studies, organs harvested at the time of euthanasia were flash-frozen in liquid nitrogen, pulverized in liquid nitrogen, and then dissolved in Trizol. cDNA was generated from 1 μg of RNA using the Superscript First Strand Synthesis System (Invitrogen) and used for real-time PCR using previously described primers and SYBR Green PCR Master Mix (Applied Biosciences), according to the manufacturer's instructions. Data were analyzed according to the comparative threshold method and normalized against the β-actin internal control transcript. Results are semi-quantitative and represent the fold difference in transcript levels in a particular sample as compared with levels in untreated cells from the same donor. […]"}, "[2]": {"tested_on": "B16F10 murine melanoma cells", "experiment": "Murine melanoma tumor model (B16F10 in C57BL/6 mice)", "type": "in vivo", "description": "Mice were injected with 1×10^5 B16F10 murine melanoma cells murine subcutaneously on the left flank. Once tumors become palpable (approximately 5 days), mice were randomly allocated to receive treatment with either: 20% polyethylene glycol (PEG) in 5% […] (vehicle control for the disclosed HIF-2α stabilizer) and PBS (vehicle control for GM-CSF), 20% PEG and GM-CSF (100 ng per mouse in a 50 μL volume), the disclosed HIF-2α stabilizer (17.5 mg/kg in a 100 μL volume) and PBS, or the disclosed HIF-2α stabilizer and GM-CSF (same doses). The PBS and GM-CSF were administered intratumorally, while the 20% PEG and the disclosed HIF-2α stabilizer were administered intraperitoneally. Mice were treated 3 times per week until tumors reached a size of 20 mm in any dimension (approximately 2.5 weeks), at which point mice were euthanized, in accordance with institutional policy. Tumor diameters were measured 3 times per week with calipers, and tumor volumes were calculated as follows: Tumor volume=0.5×[(large diameter)×(small diameter)^2].\n6-8-week-old C57BL/6 mice were injected with 1×10^5 B16F10 murine melanoma cells murine subcutaneously on the left flank. Once tumors become palpable (approximately 5 days), mice were randomly allocated to receive treatment with either: 20% PEG-400 in 5% sucrose (vehicle for disclosed HIF-2α stabilizer) and PBS (vehicle for GM-CSF), 20% PEG-400 and GM-CSF (100 ng per mouse in a 50 μL volume), disclosed HIF-2α stabilizer (17.5 mg/kg mouse weight in a 100 μL volume) and PBS, or the disclosed HIF-2α stabilizer and GM-CSF (same concentrations). The disclosed HIF-2α stabilizer (or the vehicle control) was administered intraperitoneally, while GM-CSF (or the vehicle control) was administered intratumorally. Mice were treated […] 3 times per week until tumors reached a size of 20 mm in any dimension (approximately 2.5 weeks), at which point mice were be euthanized, in accordance with institutional policy. Tumor diameters were measured 3 times per week with calipers, and tumor volumes will be calculated as follows: Tumor volume=0.5×[(large diameter)×(small diameter)^2]. For experiments analyzing the effect of neutralizing sVEGFR-1 in combination with disclosed HIF-2α stabilizer treatment, mice were treated intraperitoneally 3×/week with either disclosed HIF-2α stabilizer or vehicle control, and intratumorally with either 4 μg anti-VEGFR-1 neutralizing antibody (R&D Systems) or 4 μg polyclonal goat IgG isotype control (Santa Cruz Biotechnology) in a 50 μL volume. All protocols were approved by the Ohio State University Animal Care and Use Committee, and mice were treated in accordance with institutional guidelines for animal care.\nThe ANOVA test was used to compare independent measurements between multiple treatment groups. The data was log-transformed to normalize the variance across groups. P-values were adjusted using the Holm's procedure to conserve the type I error at 0.05 due to the multiple comparisons. For tumor growth data, changes in tumor volume over time were assessed via a longitudinal model. Tumor values were log-transformed, and estimated slopes (changes in tumor volume over time) were calculated with 95% confidence intervals. Estimated differences in tumor volume were calculated by a random-effects regression of the longitudinal data. For all analyses, p≦0.05 was considered statistically significant.\n6-8-week-old C57BL/6 mice or SCID mice were injected with 1×10^5 B16F10 murine melanoma cells or 1×10^6 A375 human melanoma cells, respectively, subcutaneously on the left flank. […]"}, "VEGF mRNA": {"tested_on": "VEGF mRNA", "experiment": "Real-time PCR of VEGF mRNA within B16F10 tumors", "type": "in vivo, mice", "conditions": "p=0.490, FIG. 13B", "description": "(§2) Human monocytes were left untreated or were stimulated with 100 ng/mL GM-CSF at normoxia or at 0.5% O2. At various time-points, cells were harvested in Trizol reagent (Invitrogen) and RNA was extracted in chloroform and then purified using the RNeasy Minikit (Qiagen). In murine studies, organs harvested at the time of euthanasia were flash-frozen in liquid nitrogen, pulverized in liquid nitrogen, and then dissolved in Trizol. cDNA was generated from 1 μg of RNA using the Superscript First Strand Synthesis System (Invitrogen) and used for real-time PCR using previously described primers and SYBR Green PCR Master Mix (Applied Biosciences), according to the manufacturer's instructions. Data were analyzed according to the comparative threshold method and normalized against the β-actin internal control transcript. Results are semi-quantitative and represent the fold difference in transcript levels in a particular sample as compared with levels in untreated cells from the same donor.\n6-8-week-old C57BL/6 mice were injected with 1×10^5 B16F10 murine melanoma cells murine subcutaneously on the left flank. […] Tumor diameters were measured 3 times per week with calipers, and tumor volumes will be calculated as follows: Tumor volume=0.5×[(large diameter)×(small diameter)^2]. […]"}, "sVEGFR-1": {"tested_on": "sVEGFR-1", "experiment": "sVEGFR-1 production by human peripheral blood monocytes (ELISA, real-time PCR)", "type": "cell-based", "conditions": "monocytes stimulated with GM-CSF alone; FIG. 11D", "description": "as §1, §2"}},
  "data": [
    {"compound": "CC(=O)O[C@@]12CO[C@@H]1C[C@H](O)[C@@]1(C)C(=O)[C@H](O)C3=C(C)[C@@H](OC(=O)[C@H](O)[C@@H](NC(=O)OC(C)(C)C)c4ccccc4)C[C@@](O)([C@@H](OC(=O)c4ccccc4)[C@H]21)C3(C)C", "note": "[docetaxel, reference compound]", "values": [
      {"measurement": "tumor size as % of the size of the control tumors", "setting": "[1]", "value": "approximately 50%"}
    ]},
    {"compound": "GM-CSF: granulocyte-macrophage colony-stimulating factor", "values": [
      {"measurement": "VEGF protein in supernatants (free VEGF ELISA)", "setting": "VEGF; GM-CSF-stimulated monocytes, VEGF neutralized by sVEGFR-1", "value": "undetectable"},
      {"measurement": "VEGF transcript levels", "setting": "VEGF; monocytes stimulated with GM-CSF alone", "value": "increased VEGF production"},
      {"measurement": "tumor volume reduction, GM-CSF given I.T. vs I.P.", "setting": "[2]; B16F10 melanoma, stabilizer 17 mg/kg I.P. in all cases, no control group, FIG. 4", "value": "greater reduction of tumor volume"},
      {"measurement": "tumor growth / tumor volume", "setting": "[2]; B16F10 melanoma, stabilizer 17 mg/kg I.P., GM-CSF I.T., vs PBS control, FIG. 3", "value": "reduction in tumor volume"},
      {"measurement": "average tumor volumes vs vehicle controls", "setting": "[2]; day 16 of treatment, 3×/week, GM-CSF 100 ng/mouse intratumoral, stabilizer 17.5 mg/kg intraperitoneal, each p<0.001", "value": "significantly smaller"},
      {"measurement": "levels of intratumoral VEGF vs vehicle control-treated mice", "setting": "VEGF mRNA", "value": "failed to increase"},
      {"measurement": "monocyte production of sVEGFR-1", "setting": "sVEGFR-1", "value": "induced"}
    ]}
  ]
}
